Data set [1] in a line: Solubility remark in Table 2 (compound insoluble, no IC50 given). Conditions: Table 2, cell in place of 4A/4C/5A IC50. The data set is classed as physicochemical.
Data set [2] deals with T1, KDM5A (Homo sapiens, UniProt P29375).
T1 construct: C-terminal FLAG-tagged KDM5A^1-1090 was purchased from BPS Biosciences; FLAG (C); purchased BPS Biosciences
T1 sequence (P29375 1-1090): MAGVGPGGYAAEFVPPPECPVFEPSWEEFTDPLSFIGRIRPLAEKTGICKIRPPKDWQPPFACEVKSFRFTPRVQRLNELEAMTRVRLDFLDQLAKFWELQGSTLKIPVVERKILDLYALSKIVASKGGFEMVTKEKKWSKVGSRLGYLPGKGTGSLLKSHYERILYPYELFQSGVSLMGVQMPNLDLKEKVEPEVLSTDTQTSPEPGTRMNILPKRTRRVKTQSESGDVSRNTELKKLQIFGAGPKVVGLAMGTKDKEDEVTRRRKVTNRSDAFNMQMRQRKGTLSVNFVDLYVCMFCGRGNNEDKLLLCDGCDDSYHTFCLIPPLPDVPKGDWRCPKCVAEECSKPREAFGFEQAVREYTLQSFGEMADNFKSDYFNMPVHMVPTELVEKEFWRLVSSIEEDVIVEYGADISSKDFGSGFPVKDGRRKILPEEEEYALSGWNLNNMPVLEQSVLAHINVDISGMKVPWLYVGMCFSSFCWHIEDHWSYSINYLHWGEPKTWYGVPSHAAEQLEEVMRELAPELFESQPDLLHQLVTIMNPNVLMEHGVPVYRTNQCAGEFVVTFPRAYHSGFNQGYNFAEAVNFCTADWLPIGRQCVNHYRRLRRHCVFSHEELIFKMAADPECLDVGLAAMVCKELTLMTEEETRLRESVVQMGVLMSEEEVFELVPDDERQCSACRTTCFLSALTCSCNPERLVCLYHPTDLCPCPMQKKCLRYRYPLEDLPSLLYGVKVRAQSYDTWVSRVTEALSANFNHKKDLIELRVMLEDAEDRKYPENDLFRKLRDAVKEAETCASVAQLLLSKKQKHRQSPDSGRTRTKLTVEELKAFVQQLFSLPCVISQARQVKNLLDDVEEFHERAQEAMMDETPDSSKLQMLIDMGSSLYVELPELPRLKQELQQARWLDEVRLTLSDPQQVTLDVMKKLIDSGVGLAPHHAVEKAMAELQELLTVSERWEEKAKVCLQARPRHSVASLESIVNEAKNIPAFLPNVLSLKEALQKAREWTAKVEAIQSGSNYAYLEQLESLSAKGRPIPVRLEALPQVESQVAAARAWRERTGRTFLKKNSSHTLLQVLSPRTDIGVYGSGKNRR
Description: KDM5A Assay (SAMDI mass spectrometry demethylase assay). The data set is classed as biochemical. Conditions: C-terminal FLAG-tagged KDM5A 1-1090; class symbols; read-out: 5A IC50. On the procedure:
(§1) C-terminal FLAG-tagged KDM5A^1-1090 was purchased from BPS Biosciences. Peptides were synthesized by BioPeptide and all other reagents were purchased from Sigma-Aldrich at the highest level of purity possible. Assays were performed in a 50 μL volume in 384-well V-bottom polypropylene microplates (Greiner) at 25° C. Optimized 1× assay buffer was 50 mM HEPES (pH=8.0), 100 μM sodium ascorbate, 20 mM NaCl, 10 μM ammonium iron sulfate, 1 mM tris(2-carboxyethyl)phosphine (TCEP), 0.002% Tween-20, and 0.005% BSG. For compound screening, 35 μL of KDM5A^1-109° (final concentration, f.c.=20 nM) was added using a Multidrop Combi and preincubated with 1 μL of test compound (f.c.=10 μM) for 30 minutes and subsequently 15 μL of peptide with the following sequence NH2-ART[Kme-3]QTARKSTGGKA[K-Ahx-Biot]-amide (f.c.=250 nM) and 2-oxoglutarate (f.c.=15 μM) was added by Multidrop Combi to begin the reaction. Reactions proceeded for 150 minutes and were stopped by the addition of 5 μL of formic acid (f.c.=0.5%) using a Multidrop Combi and then analyzed by SAMDI Tech Inc.
(§2) SAMDI Tech analyzed all reactions using self-assembled monoloayer desorption/ionization technology as previously described (Gerard-Levin Z A, Scholle M D, Eisenberg A H, et al.: High-throughput screening of small molecule libraries using SAMDI mass spectrometry. ACS Comb Sci 2011; 13:347-350). Briefly, a 2 μL sample of the stopped demethylase reactions were transferred to a SAMDI array coated with 384 biotin-neutravidin spots using a 384-channel pipet station. The SAMDI arrays were incubated for 1 h in a humidified chamber, followed by washing of the surface with deionized ultra-filtered water (DIUF) and drying under nitrogen. A matrix of 30 mg/ml 2′,4′,6′-Trihydroxyacetophenone monohydrate (THAP) in acetone was applied using a TPP Mosquito 1.2 μL tip by dispensing 50 nL on each of the 384 spots on the array. SAMDI-MS was run using acquisition method ReflectorPositiveUTX. The % conversion of substrate to product was calculated using the AUC of the substrate and product peptide peaks.
(§3) An IC50 value was determined by contacting various concentrations of a test compound with one of the KDM4A, KDM4C or KDMSC enzyme constructs and plotting a dose-response curve which associates the amount of inhibition of the enzyme relative to the concentration of the test compound. From the curve, the IC50 value (which represents the concentration of the test compound necessary to inhibit maximal enzymatic activity by 50%) was determined. Additionally, the slope of the linear range of the plotted curve, which indicates the speed with which the curve rises between the minimum and maximum, was calculated.

Data set [3] deals with T2, KDM4C (Homo sapiens, UniProt Q9H3R0).
T2 construct: N-terminal GST-tagged KDM4C^2-372 was purchased from BPS Biosciences; GST (N); purchased BPS Biosciences
T2 sequence (Q9H3R0 2-372): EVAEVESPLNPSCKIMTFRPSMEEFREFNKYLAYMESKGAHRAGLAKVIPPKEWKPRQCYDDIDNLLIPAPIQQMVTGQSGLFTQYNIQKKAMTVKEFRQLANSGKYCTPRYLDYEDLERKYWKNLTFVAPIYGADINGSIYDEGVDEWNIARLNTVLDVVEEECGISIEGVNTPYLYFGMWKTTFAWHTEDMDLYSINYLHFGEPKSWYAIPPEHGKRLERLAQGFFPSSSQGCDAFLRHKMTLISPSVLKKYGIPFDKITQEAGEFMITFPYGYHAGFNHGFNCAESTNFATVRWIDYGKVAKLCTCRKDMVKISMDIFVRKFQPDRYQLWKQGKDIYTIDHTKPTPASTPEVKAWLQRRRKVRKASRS
The data set can be described thus: KDM4C Assay (SAMDI mass spectrometry demethylase assay). The conditions noted are these: N-terminal GST-tagged KDM4C 2-372; class symbols; read-out: 4C IC50. The data set is classed as biochemical. The method, then:
as §1, with “N-terminal GST-tagged KDM4C^2-372” for “C-terminal FLAG-tagged KDM5A^1-1090”, “KDM4C^2-372” for “KDM5A^1-109°”, “f.c.=5” for “f.c.=20”, “NH2-ARTKQTAR(Kme3)STGGKAPRKQLA(K-Ahx-Biotin)-amide (f.c.=500” for “NH2-ART[Kme-3]QTARKSTGGKA[K-Ahx-Biot]-amide (f.c.=250”
as §2, §3

Take `Cn1nc(-c2ccncc2)cc1Nc1cnccc1C(=O)O` [Compound 44, 3-((1-methyl-3-(pyridin-4-yl)-1H-pyrazol-5-yl)amino) isonicotinic acid]: in data set [1], the “Solubility remark given instead of IC50 values” (“Solubility remark given instead” below) is reported as “Insoluble”.

Turning to `Cc1ccccc1-n1ncc(Nc2cnccc2C(=O)O)c1C` [Compound 50, 3-((5-methyl-1-(o-tolyl)-1H-pyrazol-4-yl)amino)isonicotinic acid], the “Solubility remark given instead” value in data set [1] is recorded as “Insoluble”.

For the compound `Cc1c(Nc2cnccc2C(=O)O)nn(C)c1-c1ccccc1` [Compound 54, 3-((1,4-dimethyl-5-phenyl-1H-pyrazol-3-yl)amino)isonicotinic acid], the “Solubility remark given instead” value in data set [1] is “Insoluble”.

Usually IC50 stands for the point on the concentration scale where inhibition reaches its midpoint. For the compound `Cc1cnn(C2CCCN(CCN)C2)c1Nc1cnccc1C(=O)O` (centres unmarked) [Compound 140, 3-(1-(1-(2-aminoethyl)piperidin-3-yl)-4-methyl-1H-pyrazol-5-yl-amino)isonicotinic acid], the IC50 in data set [2] and in data set [3] was 10 to 100 µM in each case.

Consider `Cc1cn(C2CCCNC2)nc1Nc1cnccc1C(=O)O` (centres unmarked) [Compound 141, 3-(4-methyl-1-(piperidin-3-yl)-1H-pyrazol-3-ylamino) isonicotinic acid], for which the IC50 in data set [2] is 0.001 to 0.1 µM; in data set [3], 0.1 to 1 µM.

As for `Cc1cn(-c2cccc3c2CCNC3)nc1Nc1cnccc1C(=O)O` [Compound 143, 3-(4-methyl-1-(1,2,3,4-tetrahydroisoquinolin-5-yl)-1H-pyrazol-3-ylamino)isonicotinic acid], the IC50 in data set [2] is 0.001 to 0.1 µM; in data set [3] it was 0.1 to 1 µM.

As to `CN(C)CCc1cn(-c2ccccc2)nc1Nc1cnccc1C(=O)O` [Compound 144, 3-(4-(2-(dimethylamino)ethyl)-1-phenyl-1H-pyrazol-3-ylamino) isonicotinic acid], the IC50 in data set [2] and in data set [3] was 1 to 10 µM in each case.

The record behind these values is patent US20170291890A1 (Epizyme, Inc., priority 2014, published 2017).
